Measurements as given in patent US9452986B2, “6-heteroaryloxy- or 6-aryloxy-quinoline-2-carboxamides and method of use” (AbbVie Inc., priority 2014, dated 2016).
Where two headings read alike, the source gives them in different places.

How the values were obtained:
osteoarthritic rats = assay: Osteoarthritic (OA) pain induced by sodium monoiodoacetate (MIA), hind limb grip force; format: in vivo, rat; settings: Rattus norvegicus, 480 h, rat, 20 days following MIA injection, hind limb grip force, read-out: OA MPE; for inhibition in vivo at 10 mg/kg: OA dose 10 mg/kg; for inhibition in vivo at 30 mg/kg: OA dose 30 mg/kg
Experimental: Osteoarthritic (OA) Pain Induced by Sodium Monoiodoacetate (MIA)
Pain behavior was assessed by measurement of hind limb grip force (GF) in adult osteoarthritic rats. Male Sprague Dawley rats, obtained from Charles River Laboratories, (Wilmington, Mass.), weighing 150-175 g, were injected in the unilateral knee join with a single intra-articular injection of sodium monoiodoacetate (MIA, 3 mg/rat). All rats were tested at 20 days following MIA injection. A behavioral measure of activity-induced pain was carried out. Measurements of the peak hind limb grip force were conducted by recording the maximum compressive force (CFmax), in grams of force, exerted on a hind limb strain gauge setup, in a commercially available grip force measurement system (Columbus Instruments, Columbus, Ohio).
During testing, each rat was gently restrained by grasping it around its rib cage and then allowed to grasp the wire mesh frame attached to the strain gauge. The experimenter then moved the animal in a rostral-to-caudal direction until the grip was broken. Each rat was sequentially tested twice at an approximately 2-3 minute interval to obtain a raw mean grip force (CFmax). This raw mean grip force data was in turn converted to a maximum hindlimb cumulative compressive force (CFmax), as the grams of force/kg of body weight, for each animal.
For evaluating the compound effects, the hind limb grip force was conducted 20 days following the intra-articular injection of MIA. A group of age-matched naïve (not injected with MIA) animals was added as a comparator to the drug-dosed groups. The vehicle control response for each group of MIA-treated animals was defined as the 0% response (0% effect), whereas the naïve control group was defined as the normal response and as 100% effect. The % effect for each dose group was expressed as % return of response to normalcy, compared to the naïve group. A percent maximal possible effect (% MPE) of testing compound was calculated according to the formula: (Treatment CFmax−Vehicle CFmax)/Vehicle CFmax]×100). Higher % effect numbers indicate increased relief from the pain in the model, with 100% indicating a return to the level of response seen in normal (non-osteoarthritic) animals. All experiments evaluating drug effects in this model were conducted in a randomized blinded fashion.
The animals were housed in Association for Assessment and Accreditation of Laboratory Animal Care (AAALAC) approved facilities at AbbVie Inc. in a temperature-regulated environment under a controlled 12-hour light-dark cycle, with lights on at 6:00 a.m. Food and water were available ad libitum at all times except during testing. All testing was done following procedures outlined in protocols approved by AbbVie Inc.'s Institutional Animal Care and Use Committee.

recombinant human Nav1.7 = recombinant human Nav1.7 (Homo sapiens (Human), UniProt Q15858); assay: FRET-based membrane potential assay, recombinant human sodium channel Nav1.7; format: cell-based; settings: read-out: FRET-Membrane Potential Nav1.7 IC50
Outline: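 Channel activation used veratridine at its EC80, set by a dilution curve each experiment, together with Leiurus scorpion venom, added 3 min after compound. Membrane-potential ratio signals from FLIPR Tetra in HEPES-buffered HBSS were fitted to a four-parameter Hill equation for percent inhibition and IC50.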

[1] = HEK293 cells stably expressing recombinant human Nav1.7, veratridine + scorpion venom depolarization

Chain of recombinant human Nav1.7 (Q15858 whole entry): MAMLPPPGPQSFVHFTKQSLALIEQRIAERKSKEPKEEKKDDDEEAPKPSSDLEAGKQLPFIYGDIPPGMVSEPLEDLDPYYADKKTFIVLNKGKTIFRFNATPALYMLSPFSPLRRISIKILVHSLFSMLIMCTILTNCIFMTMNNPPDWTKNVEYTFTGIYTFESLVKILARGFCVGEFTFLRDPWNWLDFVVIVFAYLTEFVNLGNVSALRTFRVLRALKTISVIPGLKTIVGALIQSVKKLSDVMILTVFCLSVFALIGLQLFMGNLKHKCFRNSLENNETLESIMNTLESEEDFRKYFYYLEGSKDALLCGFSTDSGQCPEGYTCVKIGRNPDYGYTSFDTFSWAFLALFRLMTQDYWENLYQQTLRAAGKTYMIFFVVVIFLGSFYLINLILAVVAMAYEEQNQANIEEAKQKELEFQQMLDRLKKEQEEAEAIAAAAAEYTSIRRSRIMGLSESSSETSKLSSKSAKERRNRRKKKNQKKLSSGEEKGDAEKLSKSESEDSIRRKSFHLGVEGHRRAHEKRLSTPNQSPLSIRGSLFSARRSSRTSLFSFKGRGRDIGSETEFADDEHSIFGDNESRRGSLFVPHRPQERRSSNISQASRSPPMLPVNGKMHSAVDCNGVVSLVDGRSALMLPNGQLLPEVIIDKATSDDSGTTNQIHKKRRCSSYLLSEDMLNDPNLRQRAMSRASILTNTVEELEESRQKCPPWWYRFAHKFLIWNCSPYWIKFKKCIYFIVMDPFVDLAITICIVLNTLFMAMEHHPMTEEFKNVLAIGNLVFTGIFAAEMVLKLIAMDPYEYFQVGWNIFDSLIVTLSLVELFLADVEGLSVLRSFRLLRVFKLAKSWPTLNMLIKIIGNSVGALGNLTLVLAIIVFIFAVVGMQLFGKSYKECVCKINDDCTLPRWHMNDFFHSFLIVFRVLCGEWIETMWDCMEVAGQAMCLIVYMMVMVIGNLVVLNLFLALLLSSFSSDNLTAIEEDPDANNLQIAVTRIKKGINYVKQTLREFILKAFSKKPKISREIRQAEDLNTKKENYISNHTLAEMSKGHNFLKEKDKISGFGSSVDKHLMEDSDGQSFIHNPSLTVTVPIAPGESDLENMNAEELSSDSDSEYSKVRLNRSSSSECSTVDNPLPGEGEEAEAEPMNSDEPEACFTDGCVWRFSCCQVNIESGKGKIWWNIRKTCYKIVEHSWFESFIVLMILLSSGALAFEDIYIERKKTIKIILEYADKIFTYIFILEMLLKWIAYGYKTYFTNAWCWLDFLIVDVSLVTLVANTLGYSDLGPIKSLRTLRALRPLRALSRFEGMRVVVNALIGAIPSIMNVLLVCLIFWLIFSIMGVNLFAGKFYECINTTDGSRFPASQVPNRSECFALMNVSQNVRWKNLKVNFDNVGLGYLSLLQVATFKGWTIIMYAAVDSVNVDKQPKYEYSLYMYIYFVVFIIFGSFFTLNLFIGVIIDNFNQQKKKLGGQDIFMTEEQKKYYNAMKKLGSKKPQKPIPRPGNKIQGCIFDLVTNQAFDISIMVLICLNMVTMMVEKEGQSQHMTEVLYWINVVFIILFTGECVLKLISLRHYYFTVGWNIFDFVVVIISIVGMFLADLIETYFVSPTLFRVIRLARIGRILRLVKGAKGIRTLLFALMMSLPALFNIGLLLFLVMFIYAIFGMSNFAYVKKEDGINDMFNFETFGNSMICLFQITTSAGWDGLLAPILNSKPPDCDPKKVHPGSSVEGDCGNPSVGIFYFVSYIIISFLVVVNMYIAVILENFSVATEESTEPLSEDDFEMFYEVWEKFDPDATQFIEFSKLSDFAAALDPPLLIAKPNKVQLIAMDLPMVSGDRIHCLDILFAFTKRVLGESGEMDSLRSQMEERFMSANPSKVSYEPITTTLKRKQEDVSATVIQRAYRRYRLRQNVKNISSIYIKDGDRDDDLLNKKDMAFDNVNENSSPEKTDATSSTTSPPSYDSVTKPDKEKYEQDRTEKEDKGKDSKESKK

Structure (SMILES) | inhibition in vivo at 10 mg/kg (osteoarthritic rats) | IC50 (recombinant human Nav1.7; [1]) | IC50 (recombinant human Nav1.7) | inhibition in vivo at 30 mg/kg (osteoarthritic rats)
O=C(NCCN1CCOCC1)c1ccc2cc(Oc3ccc(C(F)(F)F)cn3)ccc2n1 [Example 21, N-[2-(morpholin-4-yl)ethyl]-6-{[5-(trifluoromethyl)pyridin-2-yl]oxy}quinoline-2-carboxamide] | 35% | 529 nM | – | –
O=C(NCC1CCO1)c1ccc2cc(Oc3ccc(C(F)(F)F)cn3)ccc2n1 (stereo not shown) [Example 37, N-(oxetan-2-ylmethyl)-6-{[5-(trifluoromethyl)pyridin-2-yl]oxy}quinoline-2-carboxamide] | 29% | 392 nM | – | –
C[C@@H]1CN(C(=O)c2ccc3cc(Oc4ccc(C(F)(F)F)cn4)ccc3n2)CCN1 [Example 12, [(3R)-3-methylpiperazin-1-yl](6-{[5-(trifluoromethyl)pyridin-2-yl]oxy}quinolin-2-yl)methanone] | 79% | – | 348 nM | –
NC1CN(C(=O)c2ccc3cc(Oc4ccc(C(F)(F)F)cn4)ccc3n2)C1 [Example 8, (3-aminoazetidin-1-yl)(6-{[5-(trifluoromethyl)pyridin-2-yl]oxy}quinolin-2-yl)methanone] | – | 232 nM | – | 91%
CS(=O)(=O)C1CN(C(=O)c2ccc3cc(Oc4ccc(C(F)(F)F)cn4)ccc3n2)C1 [Example 29, [3-(methylsulfonyl)azetidin-1-yl](6-{[5-(trifluoromethyl)pyridin-2-yl]oxy}quinolin-2-yl)methanone] | 20% | – | – | –
O=C(NC1CC[S+]([O-])CC1)c1ccc2cc(Oc3ccc(C(F)(F)F)cn3)ccc2n1 (stereo not shown) [Example 32, N-(1-oxidotetrahydro-2H-thiopyran-4-yl)-6-{[5-(trifluoromethyl)pyridin-2-yl]oxy}quinoline-2-carboxamide] | 23% | – | 535 nM | –
CN(C)C(=O)CNC(=O)c1ccc2cc(Oc3ccc(C(F)(F)F)nc3)ccc2n1 [Example 42, N-[2-(dimethylamino)-2-oxoethyl]-6-{[6-(trifluoromethyl)pyridin-3-yl]oxy}quinoline-2-carboxamide] | 64% | 1790 nM | – | –
CC(C)(O)CNC(=O)c1ccc2cc(Oc3ccc(C(F)(F)F)cn3)ccc2n1 [Example 30, N-(2-hydroxy-2-methylpropyl)-6-{[5-(trifluoromethyl)pyridin-2-yl]oxy}quinoline-2-carboxamide] | 66% | 793 nM | – | –
O=C(c1ccc2cc(Oc3ccc(C(F)(F)F)cn3)ccc2n1)N1C[C@@H]2C[C@H]1CN2 [Example 3, (1S,4S)-2,5-diazabicyclo[2.2.1]hept-2-yl(6-{[5-(trifluoromethyl)pyridin-2-yl]oxy}quinolin-2-yl)methanone] | – | 1450 nM | – | 46%
O=C(N[C@H]1CS(=O)(=O)C[C@H]1O)c1ccc2cc(Oc3ccc(C(F)(F)F)cn3)ccc2n1 [Example 26, N-[(3R,4S)-4-hydroxy-1,1-dioxidotetrahydrothiophen-3-yl]-6-{[5-(trifluoromethyl)pyridin-2-yl]oxy}quinoline-2-carboxamide] | 67% | – | 1990 nM | –
CC[C@@H]1CN(C(=O)c2ccc3cc(Oc4ccc(C(F)(F)F)cn4)ccc3n2)CCN1 [Example 16, [(3R)-3-ethylpiperazin-1-yl](6-{[5-(trifluoromethyl)pyridin-2-yl]oxy}quinolin-2-yl)methanone] | 57% | 406 nM | – | –
O=C(N[C@@H]1CS(=O)(=O)C[C@H]1O)c1ccc2cc(Oc3ccc(C(F)(F)F)cn3)ccc2n1 [Example 24, N-[(3S,4S)-4-hydroxy-1,1-dioxidotetrahydrothiophen-3-yl]-6-{[5-(trifluoromethyl)pyridin-2-yl]oxy}quinoline-2-carboxamide] | 62% | – | 1580 nM | –
O=C1CC(NC(=O)c2ccc3cc(Oc4ccc(C(F)(F)F)cn4)ccc3n2)CCN1 (stereo not shown) [Example 40, N-(2-oxopiperidin-4-yl)-6-{[5-(trifluoromethyl)pyridin-2-yl]oxy}quinoline-2-carboxamide] | 59% | – | 285 nM | –
O=C(NC1CCS(=O)(=O)CC1)c1ccc2cc(Oc3ccc(C(F)(F)F)cn3)ccc2n1 [Example 15, N-(1,1-dioxidotetrahydro-2H-thiopyran-4-yl)-6-{[5-(trifluoromethyl)pyridin-2-yl]oxy}quinoline-2-carboxamide] | 52% | 1090 nM | – | –
C[C@H]1CN(C(=O)c2ccc3cc(Oc4ccc(C(F)F)cn4)ccc3n2)CCN1 [Example 43, (6-{[5-(difluoromethyl)pyridin-2-yl]oxy}quinolin-2-yl) [(3S)-3-methylpiperazin-1-yl]methanone] | 71% | 3060 nM | – | –
CC(=O)c1ccc(Oc2ccc3nc(C(=O)N4CCNCC4)ccc3c2)cc1 [Example 7, 1-(4-{[2-(piperazin-1-ylcarbonyl)quinolin-6-yl]oxy}phenyl)ethanone] | – | – | – | 51%
O=C(c1ccc2cc(Oc3ccc(C(F)(F)F)cn3)ccc2n1)N1CC(=O)N2CCC[C@H]2C1 [Example 27, (8aS)-2-[(6-{[5-(trifluoromethyl)pyridin-2-yl]oxy}quinolin-2-yl)carbonyl]hexahydropyrrolo[1,2-a]pyrazin-4(1H)-one] | 49% | 1100 nM | – | –
CN(C)C(=O)CNC(=O)c1ccc2cc(Oc3ccc(C(F)F)cn3)ccc2n1 [Example 441, 6-{[5-(difluoromethyl)pyridin-2-yl]oxy}-N-[2-(dimethylamino)-2-oxoethyl]quinoline-2-carboxamide] | 22% | – | 1150 nM | –
O=C(N[C@@H]1CCS(=O)(=O)C1)c1ccc2cc(Oc3ccc(C(F)(F)F)cn3)ccc2n1 [Example 5, N-[(3R)-1,1-dioxidotetrahydrothiophen-3-yl]-6-{[5-(trifluoromethyl)pyridin-2-yl]oxy}quinoline-2-carboxamide] | – | 262 nM | – | 27%
O=C(NC1CC(=O)N(c2ccc(F)cc2)C1)c1ccc2cc(Oc3ccc(C(F)(F)F)cn3)ccc2n1 (stereo not shown) [Example 54, N-[1-(4-fluorophenyl)-5-oxopyrrolidin-3-yl]-6-{[5-(trifluoromethyl)pyridin-2-yl]oxy}quinoline-2-carboxamide] | 21% | 409 nM | – | –
O=C(c1ccc2cc(Oc3ccc(C(F)(F)F)cn3)ccc2n1)N1CCN[C@@H](CO)C1 [Example 17, [(3R)-3-(hydroxymethyl)piperazin-1-yl](6-{[5-(trifluoromethyl)pyridin-2-yl]oxy}quinolin-2-yl)methanone] | 19% | – | 3120 nM | –
C[C@H]1CN(C(=O)c2ccc3cc(Oc4ccc(C(F)(F)F)cn4)ccc3n2)CCN1 [Example 13, [(3S)-3-methylpiperazin-1-yl](6-{[5-(trifluoromethyl)pyridin-2-yl]oxy}quinolin-2-yl)methanone] | 44% | – | 454 nM | –
O=C(c1ccc2cc(Oc3ccc(OC(F)(F)F)cn3)ccc2n1)N1CCNCC1 [Example 431, piperazin-1-yl(6-{[5-(trifluoromethoxy)pyridin-2-yl]oxy}quinolin-2-yl)methanone] | – | – | – | 73%
O=C(NC1C[S+]([O-])C1)c1ccc2cc(Oc3ccc(C(F)(F)F)cn3)ccc2n1 (stereo not shown) [Example 503, N-(1-oxidothietan-3-yl)-6-{[5-(trifluoromethyl)pyridin-2-yl]oxy}quinoline-2-carboxamide] | – | 586 nM | – | –
O=C(NCC1(O)COC1)c1ccc2cc(Oc3ccc(C(F)(F)F)cn3)ccc2n1 [Example 412, N-[(3-hydroxyoxetan-3-yl)methyl]-6-{[5-(trifluoromethyl)pyridin-2-yl]oxy}quinoline-2-carboxamide] | – | – | 513 nM | –
CC(=O)NCC(C)CNC(=O)c1ccc2cc(Oc3ccc(C(F)(F)F)cn3)ccc2n1 (stereo not shown) [Example 610, N-(3-acetamido-2-methylpropyl)-6-{[5-(trifluoromethyl)pyridin-2-yl]oxy}quinoline-2-carboxamide] | – | 2760 nM | – | –
